Measurements published in US20260083751A1, “ALLOSTERIC MODULATORS OF ANDROGEN RECEPTOR COACTIVATOR RECRUITMENT FOR CRPC THERAPY” (University of Pittsburgh – Of the Commonwealth System of …, priority 2022, published 2026).
“Also recorded” adds a separate entry of the source. Where two headings read alike, the source gives them in different places.

Legend:
Format in all cases: cell-based
[1] = test system: 22Rv1 cells; experiment: Prostate cancer cell line growth inhibition assay, 22Rv1; conditions: Homo sapiens, 22Rv1, 72 h; read-out: AR positive 22Rv1 GI50
Procedure: (§1) Prostate Cancer Cell Line Growth Inhibition Assays: The PC-3, DU-145, LNCaP, C4-2, and 22Rv1 PC cell line growth inhibition assays have been described previously (Fancher et al., Assay Drug Dev Technol. 2016, 14:453-477; Fancher et al., Assay Drug Dev Technol. 2019, 17:364-386). On day 1, each PC cell line was harvested, counted, and seeded into two 384-well assay plates, a time zero (T0) and a time 72 h (T72) plate. PC cell lines were all seeded at 1,000 cells per well in 45 μL of tissue culture media in uncoated white clear bottom 384-well assay plates (VWR, #82050-076) using a Matrix electronic multichannel pipette (Thermo Fisher Scientific, Waltham, MA) and cultured overnight at 37° C., 5% CO2, and 95% humidity. On day 2, 25 μL of the CellTiter-Glo® (CTG) (Promega Corporation, Madison, WI) detection reagent was dispensed into the wells of the TO assay plate using a Matrix electronic multichannel pipette, and the RLUs were captured on the SpectraMax® M5e (Molecular Devices LLC, Sunnyvale, CA) microtiter plate reader. Also on day 2, 5 μL of compounds were transferred into the test wells of the T72 384-well assay plates which were returned to the incubator for 72 h. Control wells received DMSO alone. On day 5, 25 μL of the CTG detection reagent was dispensed into the wells of the T72 assay plate using a Matrix electronic multichannel pipette, and the RLU's were captured on the SpectraMax® M5e microtiter plate reader platform.
(§2) For the 96-well AR-LBD H^3-DHT radioligand binding assay, eight minimum and maximum plate control wells were utilized to normalize the data. […] To normalize the 72 h compound exposure PC growth inhibition data, the signals from the compound treated wells were processed and expressed as % of the T72 DMSO plate controls. IC50 and GI50 values for each of the bioassays were calculated using GraphPad Prism 9 software to plot and fit data to curves using the Sigmoidal dose response variable slope equation Y=Bottom+[Top-Bottom]/[1+10^(Log EC50−X)*HillSlope].

[2] = test system: C4-2 cells; experiment: Prostate cancer cell line growth inhibition assay, C4-2; conditions: C4-2, 72 h; read-out: AR positive C4-2 GI50
Procedure: as §1, §2

[3] = target: T1, AR (Homo sapiens, UniProt P10275, T878A); experiment: AlphaScreen cellular thermal shift assay (CETSA) for AR target engagement in C4-2 cells; conditions: for AR thermal stability at 46° C., compound alone / DHT-induced (DHT-enhanced) AR thermal stability at 46° C.: C4-2 cells; for AR thermal stability at 46° C., compound alone: 20 μM where stated, 46° C. for 5 min; for DHT-induced (DHT-enhanced) AR thermal stability at 46° C.: compound 20 μM where stated, 10 nM DHT; for DHT-enhanced AR stability at 46° C.: 20 μM and 50 μM compound; for Right shift of the DHT EC50: 20 or 50 μM compound; for Maximum efficacy of DHT-enhanced AR thermal stabilization: S2-6 at 20 or 50 μM, S3-11 at 50 μM; for IC50: read-out: IC50, inhibition of DHT-induced AR stability at 46° C.
T1 construct: the amount of soluble AR protein in heat shocked C4-2 cell lysates; endogenous in cells; host or cells: C4-2 castration resistant prostate cancer cells
T1 sequence (P10275 1-920 T878A): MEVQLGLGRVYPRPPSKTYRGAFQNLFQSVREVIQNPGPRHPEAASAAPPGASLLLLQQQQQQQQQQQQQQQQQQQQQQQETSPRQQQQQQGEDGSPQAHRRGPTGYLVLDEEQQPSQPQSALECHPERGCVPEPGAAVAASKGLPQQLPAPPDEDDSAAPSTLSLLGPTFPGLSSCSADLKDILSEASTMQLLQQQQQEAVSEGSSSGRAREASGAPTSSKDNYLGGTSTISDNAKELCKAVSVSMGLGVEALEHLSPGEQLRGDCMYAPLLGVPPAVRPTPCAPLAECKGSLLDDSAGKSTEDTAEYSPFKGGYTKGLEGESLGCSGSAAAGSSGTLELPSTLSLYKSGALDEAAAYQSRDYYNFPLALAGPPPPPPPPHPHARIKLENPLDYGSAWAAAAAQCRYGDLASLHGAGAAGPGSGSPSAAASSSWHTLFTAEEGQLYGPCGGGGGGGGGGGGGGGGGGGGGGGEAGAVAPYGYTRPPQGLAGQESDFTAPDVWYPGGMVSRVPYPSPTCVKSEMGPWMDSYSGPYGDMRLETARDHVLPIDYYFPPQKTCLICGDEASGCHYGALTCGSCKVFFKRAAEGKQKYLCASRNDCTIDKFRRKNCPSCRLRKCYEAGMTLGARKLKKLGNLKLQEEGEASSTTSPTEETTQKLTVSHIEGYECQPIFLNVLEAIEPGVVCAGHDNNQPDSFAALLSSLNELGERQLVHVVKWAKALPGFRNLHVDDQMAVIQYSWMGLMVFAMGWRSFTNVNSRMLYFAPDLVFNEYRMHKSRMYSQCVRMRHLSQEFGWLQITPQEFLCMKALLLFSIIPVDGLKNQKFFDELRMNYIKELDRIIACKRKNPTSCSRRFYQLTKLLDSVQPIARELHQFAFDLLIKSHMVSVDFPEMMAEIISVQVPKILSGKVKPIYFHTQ
Procedure: Mouse anti-hAR (BD Biosciences, San Jose, CA) and rabbit anti-hAR (MilliporeSigma, Burlington, MA) were diluted 1:330 and 1:1000 fold respectively in PBS containing 0.5 mg/mL BSA and 4 μL of the combined diluted AR antibody pair were added to 4 μL of the cell lysate supernatant in a 384-well plate and incubated in the dark for 30 min at room temperature. To each well of the 384-well plate 4 μL of a combined solution of anti-mouse IgG Alpha Donor and anti-rabbit IgG (Fc specific) AlphaLISA® Acceptor beads (Perkin Elmer, Waltham, MA) suspended in 1× lysis buffer was added to yield a final donor and acceptor bead concentrations of 40 μg/mL and 10 μg/mL respectively.

Structure (SMILES) | GI50 [1] [µM] | GI50 [2] [µM] | AR thermal stability at 46° C., compound alone [3] | DHT-induced (DHT-enhanced) AR thermal stability at 46° C. [3] | DHT-enhanced AR stability at 46° C. [3] | Right shift of the DHT EC50 [3] [fold] | AR thermal stability at 46° C., compound alone ([3]; listed as 6) | DHT-induced (DHT-enhanced) AR thermal stability at 46° C. ([3]; listed as 6) | Maximum efficacy of DHT-enhanced AR thermal stabilization [3] | IC50 [3] [µM] | IC50 ([3]; b133, unit inferred) [µM]
Cc1ccccc1-c1cc(O)c2c(c1)CN(c1nc(C(N)=O)cs1)CCO2 [Compound S1-1] | 42.5 | 30.7 | did not stabilize AR | blocked DHT-enhanced AR thermal stabilization; also recorded: inhibition of DHT-enhanced AR thermal stability | – | – | – | – | – | – | –
Cc1nsc(NC(=O)N2CCC(Sc3ccccc3C)CC2)n1 [Compound S2-6] | 17.9 | 8.66 | did not stabilize AR | blocked DHT-enhanced AR thermal stabilization; also recorded: inhibition of DHT-enhanced AR thermal stability | inhibited DHT-enhanced AR stability | > 10 | did not enhance AR stability | inhibited DHT-induced AR stability | reduced the maximum efficacy of DHT-enhanced AR thermal stabilization | 4.1 | –
Cc1c(-c2ccccc2F)[nH]c2ccc(CNC(=O)CCc3cn[nH]c3)cc12 [Compound S3-11] | 13.2 | 6.92 | did not stabilize AR | blocked DHT-enhanced AR thermal stabilization; also recorded: inhibition of DHT-enhanced AR thermal stability | inhibited DHT-enhanced AR stability | ≥ 10 | – | – | reduced the maximum efficacy of DHT | 29.9 | –
Cc1c(-c2ccccc2F)[nH]c2ccc(CNC(=O)CCc3cnccn3)cc12 [Compound S3-12] | – | – | – | – | – | – | – | – | – | 52.6 | –
Cc1c(-c2ccccc2F)[nH]c2ccc(CNC(=O)c3ccc(CO)o3)cc12 [Compound S3-14] | – | – | – | – | – | – | – | – | – | – | 9.46
Cc1c(-c2ccc(F)cc2)[nH]c2ccc(CNC(=O)c3ccc(CO)o3)cc12 [Compound S3-15] | – | – | – | – | – | – | – | – | – | 86.1 | –
Cc1cccc2c(-c3ccc(O)c(F)c3)c[nH]c12 [Compound S3-17] | – | – | – | – | inhibited DHT-enhanced AR stability | – | – | – | – | 9.46 | –
